{
  "source": "PubChem BioAssay AID2060511",
  "about": "(Molecular Pharmacology Branch, DTP, NCI, 2025);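 also: spheroids exposed to compounds for seven days before reading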;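 as to viability, T/C: percent viability relative to DMSO vehicle control taken as 100%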",
  "system": "422866-222-R5-J1-PDC spheroids with HUVEC/MSC, viability",
  "experiment": "Anticancer human tumor 422866-222-R5-J1-PDC patient-derived pancreatic adenocarcinoma cell line growth inhibition [GQUAD]",
  "settings": "for IC50: curve of first compound; for viability, T/C: stronger effect = lower value",
  "method_in_brief": "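Multi-cell-type spheroids of tumor cells with HUVEC and mesenchymal stem cells, treated with drug combinations. Concentrations descend in half-log steps from near clinical Cmax, or from 10 microM where Cmax is unknown; viability read-out.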",
  "data": [
    {"smiles": "Cn1ncnc1[C@H]1c2n[nH]c(=O)c3cc(F)cc(c23)N[C@@H]1c1ccc(F)cc1", "note": "+ CN(C)c1ccc(Nc2c3ccc(NC(=O)CCN4CCCC4)cc3nc3cc(NC(=O)CCN4CCCC4)ccc23)cc1", "values": [
      {"measurement": "IC50", "setting": "second compound 0.0316 µM", "result": "> 316", "unit": "nM"},
      {"measurement": "IC50", "setting": "second compound 0.1 µM", "result": "> 316", "unit": "nM"},
      {"measurement": "IC50", "setting": "second compound 0.316 µM", "result": "> 316", "unit": "nM"},
      {"measurement": "IC50", "setting": "second compound 1 µM", "result": "> 316", "unit": "nM"},
      {"measurement": "IC50", "setting": "second compound 3.16 µM", "result": "> 316", "unit": "nM"},
      {"measurement": "IC50", "setting": "second compound 10 µM", "result": "> 316", "unit": "nM"},
      {"measurement": "viability, T/C", "setting": "second compound 0.0316 µM, first compound 0.000999 µM", "result": 112, "unit": "%"},
      {"measurement": "viability, T/C", "setting": "second compound 0.0316 µM, first compound 0.00316 µM", "result": 93.7, "unit": "%"},
      {"measurement": "viability, T/C", "setting": "second compound 0.0316 µM, first compound 0.00999 µM", "result": 108, "unit": "%"},
      {"measurement": "viability, T/C", "setting": "second compound 0.0316 µM, first compound 0.0316 µM", "result": 97.2, "unit": "%"},
      {"measurement": "viability, T/C", "setting": "second compound 0.0316 µM, first compound 0.0999 µM", "result": 80.6, "unit": "%"},
      {"measurement": "viability, T/C", "setting": "second compound 0.0316 µM, first compound 0.316 µM", "result": 75.1, "unit": "%"},
      {"measurement": "viability, T/C", "setting": "second compound 0.1 µM, first compound 0.000999 µM", "result": 113, "unit": "%"},
      {"measurement": "viability, T/C", "setting": "second compound 0.1 µM, first compound 0.00316 µM", "result": 95.9, "unit": "%"},
      {"measurement": "viability, T/C", "setting": "second compound 0.1 µM, first compound 0.00999 µM", "result": 88, "unit": "%"},
      {"measurement": "viability, T/C", "setting": "second compound 0.1 µM, first compound 0.0316 µM", "result": 93.5, "unit": "%"},
      {"measurement": "viability, T/C", "setting": "second compound 0.1 µM, first compound 0.0999 µM", "result": 83, "unit": "%"},
      {"measurement": "viability, T/C", "setting": "second compound 0.1 µM, first compound 0.316 µM", "result": 75.7, "unit": "%"},
      {"measurement": "viability, T/C", "setting": "second compound 0.316 µM, first compound 0.000999 µM", "result": 94.1, "unit": "%"},
      {"measurement": "viability, T/C", "setting": "second compound 0.316 µM, first compound 0.00316 µM", "result": 90, "unit": "%"},
      {"measurement": "viability, T/C", "setting": "second compound 0.316 µM, first compound 0.00999 µM", "result": 81.5, "unit": "%"},
      {"measurement": "viability, T/C", "setting": "second compound 0.316 µM, first compound 0.0316 µM", "result": 85, "unit": "%"},
      {"measurement": "viability, T/C", "setting": "second compound 0.316 µM, first compound 0.0999 µM", "result": 89.1, "unit": "%"},
      {"measurement": "viability, T/C", "setting": "second compound 0.316 µM, first compound 0.316 µM", "result": 67.3, "unit": "%"},
      {"measurement": "viability, T/C", "setting": "second compound 1 µM, first compound 0.000999 µM", "result": 78.9, "unit": "%"},
      {"measurement": "viability, T/C", "setting": "second compound 1 µM, first compound 0.00316 µM", "result": 81.3, "unit": "%"},
      {"measurement": "viability, T/C", "setting": "second compound 1 µM, first compound 0.00999 µM", "result": 75.9, "unit": "%"},
      {"measurement": "viability, T/C", "setting": "second compound 1 µM, first compound 0.0316 µM", "result": 91.5, "unit": "%"},
      {"measurement": "viability, T/C", "setting": "second compound 1 µM, first compound 0.0999 µM", "result": 73.7, "unit": "%"},
      {"measurement": "viability, T/C", "setting": "second compound 1 µM, first compound 0.316 µM", "result": 72, "unit": "%"},
      {"measurement": "viability, T/C", "setting": "second compound 3.16 µM, first compound 0.000999 µM", "result": 72.3, "unit": "%"},
      {"measurement": "viability, T/C", "setting": "second compound 3.16 µM, first compound 0.00316 µM", "result": 69.7, "unit": "%"},
      {"measurement": "viability, T/C", "setting": "second compound 3.16 µM, first compound 0.00999 µM", "result": 89.5, "unit": "%"},
      {"measurement": "viability, T/C", "setting": "second compound 3.16 µM, first compound 0.0316 µM", "result": 83, "unit": "%"},
      {"measurement": "viability, T/C", "setting": "second compound 3.16 µM, first compound 0.0999 µM", "result": 80.1, "unit": "%"},
      {"measurement": "viability, T/C", "setting": "second compound 3.16 µM, first compound 0.316 µM", "result": 80.3, "unit": "%"},
      {"measurement": "viability, T/C", "setting": "second compound 10 µM, first compound 0.000999 µM", "result": 97.7, "unit": "%"},
      {"measurement": "viability, T/C", "setting": "second compound 10 µM, first compound 0.00316 µM", "result": 85.1, "unit": "%"},
      {"measurement": "viability, T/C", "setting": "second compound 10 µM, first compound 0.00999 µM", "result": 97.4, "unit": "%"},
      {"measurement": "viability, T/C", "setting": "second compound 10 µM, first compound 0.0316 µM", "result": 90.4, "unit": "%"},
      {"measurement": "viability, T/C", "setting": "second compound 10 µM, first compound 0.0999 µM", "result": 71.8, "unit": "%"},
      {"measurement": "viability, T/C", "setting": "second compound 10 µM, first compound 0.316 µM", "result": 82.1, "unit": "%"}
    ]}
  ]
}
